Data published in US10844077B2, “Thiazolyl-containing compounds for treating proliferative diseases” (Dana-Farber Cancer Institute, Inc., priority 2014, dated 2020).
Read-outs that look alike come from different tables or passages of the source.

Legend:
Format in all cases: binding
broad panel of kinases [1] = target: broad panel of kinases (Homo sapiens, UniProt Q15831); conditions: LKB1; 1 μM
broad panel of kinases [2] = target: broad panel of kinases (Homo sapiens, UniProt Q15349); conditions: 1 μM
broad panel of kinases [3] = target: broad panel of kinases (Homo sapiens, UniProt P42336, H1047Y); conditions: PIK3CA(H1047Y); 1 μM
broad panel of kinases [4] = target: broad panel of kinases (Homo sapiens, UniProt Q9NRH2); conditions: SNRK; 1 μM
broad panel of kinases [5] = target: broad panel of kinases (Homo sapiens, UniProt P30291); conditions: WEE1; 1 μM
broad panel of kinases [6] = target: broad panel of kinases (Homo sapiens, UniProt P00533); conditions: EGFR; 1 μM
broad panel of kinases [7] = target: broad panel of kinases (Homo sapiens, UniProt P31749); conditions: AKT1; 1 μM
broad panel of kinases [8] = target: broad panel of kinases (Homo sapiens, UniProt Q9Y6M4); conditions: CSNK1G3; 1 μM
broad panel of kinases [9] = target: broad panel of kinases (Homo sapiens, UniProt O00238); conditions: BMPR1B; 1 μM
broad panel of kinases [10] = target: broad panel of kinases (Homo sapiens, UniProt Q00535); conditions: CDK5; 1 μM
broad panel of kinases [11] = target: broad panel of kinases (Homo sapiens, UniProt Q9UQ88); conditions: CDC2L2; 1 μM
broad panel of kinases [12] = target: broad panel of kinases (Homo sapiens, UniProt P49336); conditions: CDK8; 1 μM
broad panel of kinases [13] = target: broad panel of kinases (Homo sapiens, UniProt Q9HBY8); conditions: SGK2; 1 μM
broad panel of kinases [14] = target: broad panel of kinases (Homo sapiens, UniProt Q13546); conditions: RIPK1; 1 μM
broad panel of kinases [15] = target: broad panel of kinases (Homo sapiens, UniProt Q13555); conditions: CAMK2G; 1 μM
broad panel of kinases [16] = target: broad panel of kinases (Homo sapiens, UniProt Q13705); conditions: ACVR2B; 1 μM
broad panel of kinases [17] = target: broad panel of kinases (Homo sapiens, UniProt P36888, N841I); conditions: FLT3(N841I); 1 μM
broad panel of kinases [18] = target: broad panel of kinases (Homo sapiens, UniProt Q13164); conditions: ERK5; 1 μM
broad panel of kinases [19] = target: broad panel of kinases (Homo sapiens, UniProt Q59H18); conditions: TNNI3K; 1 μM
broad panel of kinases [20] = target: broad panel of kinases (Homo sapiens, UniProt O95819); conditions: MAP4K4; 1 μM
broad panel of kinases [21] = target: broad panel of kinases (Homo sapiens, UniProt O75582); conditions: 1 μM
broad panel of kinases [22] = target: broad panel of kinases (Homo sapiens, UniProt O75460); conditions: ERN1; 1 μM
broad panel of kinases [23] = target: broad panel of kinases (Homo sapiens, UniProt Q13237); conditions: PRKG2; 1 μM
broad panel of kinases [24] = target: broad panel of kinases (Homo sapiens, UniProt P27037); conditions: ACVR2A; 1 μM
broad panel of kinases [25] = target: broad panel of kinases (Homo sapiens, UniProt Q9UPZ9); conditions: ICK; 1 μM
broad panel of kinases [26] = target: broad panel of kinases (Homo sapiens, UniProt P52564); conditions: MEK6; 1 μM
broad panel of kinases [27] = target: broad panel of kinases (Homo sapiens, UniProt Q9BRS2); conditions: RIOK1; 1 μM
broad panel of kinases [28] = target: broad panel of kinases (Homo sapiens, UniProt P27448); conditions: MARK3; 1 μM
broad panel of kinases [29] = target: broad panel of kinases (Homo sapiens, UniProt Q13882); conditions: BRK; 1 μM
broad panel of kinases [30] = target: broad panel of kinases (Homo sapiens, UniProt P08581, M1250T); conditions: MET(M1250T); 1 μM
broad panel of kinases [31] = target: broad panel of kinases (Homo sapiens, UniProt P54760); conditions: EPHB4; 1 μM
broad panel of kinases [32] = target: broad panel of kinases (Homo sapiens, UniProt Q9HCP0); conditions: CSNK1G1; 1 μM
broad panel of kinases [33] = target: broad panel of kinases (Homo sapiens, UniProt Q9HBH9); conditions: MKNK2; 1 μM
broad panel of kinases [34] = target: broad panel of kinases (Homo sapiens, UniProt O60331); conditions: PIP5K1C; 1 μM
broad panel of kinases [35] = target: broad panel of kinases (Homo sapiens, UniProt Q13554); conditions: CAMK2B; 1 μM
broad panel of kinases [36] = target: broad panel of kinases (Homo sapiens, UniProt Q16566); conditions: CAMK4; 1 μM

Sequence of broad panel of kinases (Homo sapiens, UniProt Q13705) (Q13705 19-512 limits assumed): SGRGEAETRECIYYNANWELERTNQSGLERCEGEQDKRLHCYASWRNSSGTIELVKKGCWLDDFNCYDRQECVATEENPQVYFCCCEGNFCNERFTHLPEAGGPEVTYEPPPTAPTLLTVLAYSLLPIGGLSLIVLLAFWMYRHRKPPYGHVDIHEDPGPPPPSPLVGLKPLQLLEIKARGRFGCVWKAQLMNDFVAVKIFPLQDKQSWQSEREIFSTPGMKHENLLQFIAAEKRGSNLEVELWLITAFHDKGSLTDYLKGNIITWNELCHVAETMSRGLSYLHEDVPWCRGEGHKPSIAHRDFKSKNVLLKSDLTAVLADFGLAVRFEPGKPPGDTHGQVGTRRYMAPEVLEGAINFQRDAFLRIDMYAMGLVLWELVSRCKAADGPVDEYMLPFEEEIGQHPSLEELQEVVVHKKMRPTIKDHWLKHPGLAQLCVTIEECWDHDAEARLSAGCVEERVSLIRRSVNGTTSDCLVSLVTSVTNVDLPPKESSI
Sequence of broad panel of kinases (Homo sapiens, UniProt P00533) (P00533 25-1210 limits assumed): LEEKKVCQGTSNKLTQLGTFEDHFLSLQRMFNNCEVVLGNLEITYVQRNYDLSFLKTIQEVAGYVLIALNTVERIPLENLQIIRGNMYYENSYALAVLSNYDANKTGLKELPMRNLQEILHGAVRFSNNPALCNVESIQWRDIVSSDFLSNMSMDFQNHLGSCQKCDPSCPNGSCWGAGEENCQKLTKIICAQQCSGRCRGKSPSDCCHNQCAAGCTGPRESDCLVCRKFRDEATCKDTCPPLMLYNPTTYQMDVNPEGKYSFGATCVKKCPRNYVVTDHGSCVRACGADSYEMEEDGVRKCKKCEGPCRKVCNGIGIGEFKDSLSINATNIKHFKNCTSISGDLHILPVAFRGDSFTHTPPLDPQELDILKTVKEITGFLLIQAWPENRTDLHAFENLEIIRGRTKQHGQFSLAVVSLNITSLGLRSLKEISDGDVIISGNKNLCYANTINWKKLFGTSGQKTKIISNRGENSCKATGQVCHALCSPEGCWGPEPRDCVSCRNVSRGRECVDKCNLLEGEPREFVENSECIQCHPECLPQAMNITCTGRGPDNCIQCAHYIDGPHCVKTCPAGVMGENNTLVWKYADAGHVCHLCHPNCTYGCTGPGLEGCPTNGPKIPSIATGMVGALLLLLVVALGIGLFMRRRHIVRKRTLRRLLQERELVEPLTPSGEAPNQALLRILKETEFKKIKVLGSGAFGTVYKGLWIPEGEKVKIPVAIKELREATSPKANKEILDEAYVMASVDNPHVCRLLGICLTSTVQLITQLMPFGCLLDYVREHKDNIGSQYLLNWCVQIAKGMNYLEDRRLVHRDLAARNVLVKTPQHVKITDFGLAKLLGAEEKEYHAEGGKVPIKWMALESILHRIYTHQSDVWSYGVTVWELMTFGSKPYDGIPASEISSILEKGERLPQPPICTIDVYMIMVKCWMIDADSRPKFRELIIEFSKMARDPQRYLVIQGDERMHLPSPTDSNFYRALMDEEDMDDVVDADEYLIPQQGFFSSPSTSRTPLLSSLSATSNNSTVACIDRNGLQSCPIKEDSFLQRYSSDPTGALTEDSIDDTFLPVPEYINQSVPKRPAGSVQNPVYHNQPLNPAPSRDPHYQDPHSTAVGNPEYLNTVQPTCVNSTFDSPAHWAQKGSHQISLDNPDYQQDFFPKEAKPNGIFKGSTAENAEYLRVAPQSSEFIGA
Sequence of broad panel of kinases (Homo sapiens, UniProt Q13237) (Q13237 2-762 limits assumed): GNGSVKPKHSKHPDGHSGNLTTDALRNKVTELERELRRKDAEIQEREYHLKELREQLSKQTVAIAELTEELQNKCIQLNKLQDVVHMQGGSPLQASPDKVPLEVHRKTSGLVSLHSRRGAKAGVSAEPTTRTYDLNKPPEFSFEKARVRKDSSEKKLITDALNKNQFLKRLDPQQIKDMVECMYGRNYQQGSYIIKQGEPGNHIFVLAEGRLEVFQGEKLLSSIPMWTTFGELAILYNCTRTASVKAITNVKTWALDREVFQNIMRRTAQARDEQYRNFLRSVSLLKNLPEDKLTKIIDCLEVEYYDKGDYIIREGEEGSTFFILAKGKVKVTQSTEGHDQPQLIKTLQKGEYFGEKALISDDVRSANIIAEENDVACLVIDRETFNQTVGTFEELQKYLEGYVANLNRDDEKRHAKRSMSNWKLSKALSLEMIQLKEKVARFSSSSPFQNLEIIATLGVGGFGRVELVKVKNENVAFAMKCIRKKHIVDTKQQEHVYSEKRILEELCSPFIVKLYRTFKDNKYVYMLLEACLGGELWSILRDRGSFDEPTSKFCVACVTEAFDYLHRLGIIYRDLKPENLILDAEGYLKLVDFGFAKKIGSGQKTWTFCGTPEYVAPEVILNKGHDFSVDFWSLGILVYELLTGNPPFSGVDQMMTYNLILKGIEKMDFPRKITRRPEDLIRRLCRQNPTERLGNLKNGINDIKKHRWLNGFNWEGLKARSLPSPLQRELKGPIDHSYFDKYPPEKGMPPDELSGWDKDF
Sequence of broad panel of kinases (Homo sapiens, UniProt Q13164) (Q13164 2-816 limits assumed): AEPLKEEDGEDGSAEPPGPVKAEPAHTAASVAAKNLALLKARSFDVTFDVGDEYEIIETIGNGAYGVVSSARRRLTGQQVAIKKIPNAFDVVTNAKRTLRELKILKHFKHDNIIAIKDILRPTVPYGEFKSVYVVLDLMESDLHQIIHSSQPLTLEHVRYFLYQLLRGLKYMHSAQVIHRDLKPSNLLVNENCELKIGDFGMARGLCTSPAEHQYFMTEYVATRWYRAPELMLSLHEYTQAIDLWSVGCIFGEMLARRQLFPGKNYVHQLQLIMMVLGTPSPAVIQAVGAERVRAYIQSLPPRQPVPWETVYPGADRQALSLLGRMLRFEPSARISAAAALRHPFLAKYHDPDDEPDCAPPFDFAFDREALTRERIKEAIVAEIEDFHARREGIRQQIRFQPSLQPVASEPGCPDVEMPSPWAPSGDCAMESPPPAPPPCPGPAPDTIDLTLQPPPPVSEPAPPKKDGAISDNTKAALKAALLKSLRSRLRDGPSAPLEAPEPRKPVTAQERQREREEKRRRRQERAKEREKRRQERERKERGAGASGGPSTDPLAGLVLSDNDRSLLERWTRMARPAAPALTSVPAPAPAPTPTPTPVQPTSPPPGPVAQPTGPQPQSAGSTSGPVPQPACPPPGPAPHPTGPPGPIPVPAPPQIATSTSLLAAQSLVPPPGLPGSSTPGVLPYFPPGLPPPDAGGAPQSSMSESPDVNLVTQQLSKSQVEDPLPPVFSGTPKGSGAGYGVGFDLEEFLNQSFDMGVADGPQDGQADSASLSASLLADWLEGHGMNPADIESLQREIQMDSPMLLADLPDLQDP
Sequence of broad panel of kinases (Homo sapiens, UniProt P08581, M1250T) (P08581 25-1390 M1250T limits assumed): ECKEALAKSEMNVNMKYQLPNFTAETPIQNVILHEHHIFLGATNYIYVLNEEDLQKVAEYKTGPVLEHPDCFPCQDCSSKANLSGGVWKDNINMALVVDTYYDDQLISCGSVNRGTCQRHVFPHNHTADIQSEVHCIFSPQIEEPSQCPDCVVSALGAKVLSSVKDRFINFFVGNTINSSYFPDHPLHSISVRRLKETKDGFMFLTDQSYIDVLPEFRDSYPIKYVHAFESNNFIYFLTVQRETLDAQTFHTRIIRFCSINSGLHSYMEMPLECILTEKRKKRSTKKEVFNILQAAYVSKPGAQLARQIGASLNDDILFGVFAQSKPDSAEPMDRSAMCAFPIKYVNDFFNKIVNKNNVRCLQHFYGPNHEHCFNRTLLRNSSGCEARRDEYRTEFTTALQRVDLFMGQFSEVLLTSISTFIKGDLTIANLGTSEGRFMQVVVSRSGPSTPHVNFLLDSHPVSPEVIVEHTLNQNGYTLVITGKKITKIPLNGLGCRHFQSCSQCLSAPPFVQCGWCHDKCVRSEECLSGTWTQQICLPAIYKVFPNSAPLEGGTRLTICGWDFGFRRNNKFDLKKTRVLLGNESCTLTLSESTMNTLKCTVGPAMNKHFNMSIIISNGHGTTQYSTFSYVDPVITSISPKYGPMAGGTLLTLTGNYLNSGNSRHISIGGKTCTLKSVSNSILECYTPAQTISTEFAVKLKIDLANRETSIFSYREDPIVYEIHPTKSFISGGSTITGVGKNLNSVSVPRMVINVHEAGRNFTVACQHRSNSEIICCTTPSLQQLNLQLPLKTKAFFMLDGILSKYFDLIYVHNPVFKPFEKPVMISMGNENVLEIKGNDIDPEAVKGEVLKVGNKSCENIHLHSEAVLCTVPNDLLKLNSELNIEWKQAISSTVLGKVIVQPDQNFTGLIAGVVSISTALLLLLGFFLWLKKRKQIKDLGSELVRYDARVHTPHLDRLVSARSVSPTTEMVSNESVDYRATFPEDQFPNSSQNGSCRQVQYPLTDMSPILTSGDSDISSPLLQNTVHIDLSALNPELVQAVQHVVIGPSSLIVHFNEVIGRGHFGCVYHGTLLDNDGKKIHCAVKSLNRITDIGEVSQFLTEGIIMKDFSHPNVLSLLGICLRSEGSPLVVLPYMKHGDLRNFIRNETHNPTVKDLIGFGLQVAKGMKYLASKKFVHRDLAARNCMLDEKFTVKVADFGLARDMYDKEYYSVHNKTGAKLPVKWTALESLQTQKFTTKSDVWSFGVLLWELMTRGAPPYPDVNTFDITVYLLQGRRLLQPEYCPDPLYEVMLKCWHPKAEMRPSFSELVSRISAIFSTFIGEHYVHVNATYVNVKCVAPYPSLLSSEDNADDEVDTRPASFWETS

Row | Structure (SMILES) | percent of control binding remaining (lower = stronger binding) (broad panel of kinases [1]) [%] | percent of control binding remaining (lower = stronger binding) (broad panel of kinases [2]; RSK3(Kin.Dom.1-N-terminal)) [%] | percent of control binding remaining (lower = stronger binding) (broad panel of kinases [2]; RSK3(Kin.Dom.2-C-terminal)) [%] | percent of control binding remaining (lower = stronger binding) (broad panel of kinases [3]) [%] | percent of control binding remaining (lower = stronger binding) (broad panel of kinases [4]) [%] | percent of control binding remaining (lower = stronger binding) (broad panel of kinases [5]) [%] | percent of control binding remaining (lower = stronger binding) (broad panel of kinases [6]) [%] | percent of control binding remaining (lower = stronger binding) (broad panel of kinases [7]) [%] | percent of control binding remaining (lower = stronger binding) (broad panel of kinases [8]) [%] | percent of control binding remaining (lower = stronger binding) (broad panel of kinases [9]) [%] | percent of control binding remaining (lower = stronger binding) (broad panel of kinases [10]) [%] | percent of control binding remaining (lower = stronger binding) (broad panel of kinases [11]) [%] | percent of control binding remaining (lower = stronger binding) (broad panel of kinases [12]) [%] | percent of control binding remaining (lower = stronger binding) (broad panel of kinases [13]) [%] | percent of control binding remaining (lower = stronger binding) (broad panel of kinases [14]) [%] | percent of control binding remaining (lower = stronger binding) (broad panel of kinases [15]) [%] | percent of control binding remaining (lower = stronger binding) (broad panel of kinases [16]) [%] | percent of control binding remaining (lower = stronger binding) (broad panel of kinases [17]) [%] | percent of control binding remaining (lower = stronger binding) (broad panel of kinases [18]) [%] | percent of control binding remaining (lower = stronger binding) (broad panel of kinases [19]) [%] | further results
1 | C=CC(=O)N1CC[C@H](Nc2nc(CN3CCOCC3)cc(Nc3ncc(C(=O)Nc4c(C)cccc4C)s3)n2)C1 [Example I-2] | 100 | 93 | 100 | 100 | 100 | 93 | 5.6 | 95 | 96 | 10 | 100 | 92 | 93 | 72 | 100 | 91 | 78 | 100 | 91 | 16 | percent of control binding remaining (lower = stronger binding) (broad panel of kinases [20]): 96%; percent of control binding remaining (lower = stronger binding) (broad panel of kinases [21]; RPS6KA5(Kin.Dom.1-N-terminal)): 98%; percent of control binding remaining (lower = stronger binding) (broad panel of kinases [21]; RPS6KA5(Kin.Dom.2-C-terminal)): 94%; percent of control binding remaining (lower = stronger binding) (broad panel of kinases [22]): 83%; percent of control binding remaining (lower = stronger binding) (broad panel of kinases [23]): 99%; percent of control binding remaining (lower = stronger binding) (broad panel of kinases [24]): 76%; percent of control binding remaining (lower = stronger binding) (broad panel of kinases [25]): 86%; percent of control binding remaining (lower = stronger binding) (broad panel of kinases [26]): 82%; percent of control binding remaining (lower = stronger binding) (broad panel of kinases [27]): 90%; percent of control binding remaining (lower = stronger binding) (broad panel of kinases [28]): 94%; percent of control binding remaining (lower = stronger binding) (broad panel of kinases [29]): 1.6%; percent of control binding remaining (lower = stronger binding) (broad panel of kinases [30]): 100%; percent of control binding remaining (lower = stronger binding) (broad panel of kinases [31]): 0%; percent of control binding remaining (lower = stronger binding) (broad panel of kinases [32]): 100%; percent of control binding remaining (lower = stronger binding) (broad panel of kinases [33]): 100%; percent of control binding remaining (lower = stronger binding) (broad panel of kinases [34]): 99%; percent of control binding remaining (lower = stronger binding) (broad panel of kinases [35]): 84%; percent of control binding remaining (lower = stronger binding) (broad panel of kinases [36]): 96%
2 | C=CC(=O)N1CC[C@H](Nc2nccc(Nc3ncc(C(=O)Nc4c(C)cccc4C)s3)n2)C1 [Example I-3] | 100 | 89 | 97 | 96 | 92 | 100 | 2.6 | 95 | 95 | 45 | 100 | 93 | 98 | 76 | 100 | 97 | 95 | 100 | 90 | 44 | percent of control binding remaining (lower = stronger binding) (broad panel of kinases [20]): 96%; percent of control binding remaining (lower = stronger binding) (broad panel of kinases [21]; RPS6KA5(Kin.Dom.1-N-terminal)): 88%; percent of control binding remaining (lower = stronger binding) (broad panel of kinases [21]; RPS6KA5(Kin.Dom.2-C-terminal)): 52%; percent of control binding remaining (lower = stronger binding) (broad panel of kinases [22]): 76%; percent of control binding remaining (lower = stronger binding) (broad panel of kinases [23]): 91%; percent of control binding remaining (lower = stronger binding) (broad panel of kinases [24]): 82%; percent of control binding remaining (lower = stronger binding) (broad panel of kinases [25]): 87%; percent of control binding remaining (lower = stronger binding) (broad panel of kinases [26]): 89%; percent of control binding remaining (lower = stronger binding) (broad panel of kinases [27]): 82%; percent of control binding remaining (lower = stronger binding) (broad panel of kinases [28]): 57%; percent of control binding remaining (lower = stronger binding) (broad panel of kinases [29]): 9.3%; percent of control binding remaining (lower = stronger binding) (broad panel of kinases [30]): 100%; percent of control binding remaining (lower = stronger binding) (broad panel of kinases [31]): 0%; percent of control binding remaining (lower = stronger binding) (broad panel of kinases [32]): 100%; percent of control binding remaining (lower = stronger binding) (broad panel of kinases [33]): 98%; percent of control binding remaining (lower = stronger binding) (broad panel of kinases [34]): 65%; percent of control binding remaining (lower = stronger binding) (broad panel of kinases [35]): 81%; percent of control binding remaining (lower = stronger binding) (broad panel of kinases [36]): 84%
